Reference: US20130190370A1, “Novel Tetrahydronaphalene Antagonists to the Thromboxane A2 (TP) Receptor” (The Trustees of the University of Pennsylvania, priority 2010, published 2013)

What was measured:
[1] = S18886 brain and plasma levels after administration to mice in drinking water; assay type: in vivo
Description: Brain and plasma drug levels of S18886 were measured after administration to mice in drinking water, as previously described (Shineman, et al., 2008, J. Neurosci 28:4785-4794). Mice have 20-30 separate drinking bouts over the course of the day (Gannon, et al., 1992, Physiol Behav. 51:515-521), albeit with much greater water consumption during the night. […] In fact, extended exposure to excessively high blood levels of a TP receptor antagonist could increase the risk of bleeding complications due to compromise of platelet function, as it is known that TP receptor knockout mice and TxA2 synthase-deficient mice have prolonged clotting times (Thomas, et al., 1998, J Clin Invest 102:1994-2001; Yu, et al., 2004, Blood 104:135-142). Furthermore, inactivating mutations in the TP receptor have been linked to a dominantly inherited bleeding disorder in humans (Hirata, et al., 1994, J Clin Invest 94:1662-1667).

[2] = target: T1, mouse TP receptor (Mus musculus, UniProt P30987); assay: Radioligand binding assay (3H-SQ29,548), mouse TP receptor; settings: read-out: Kd / affinity at the mouse TP receptor
T1 construct: expressed in transfected cells
T1 sequence (P30987 1-341): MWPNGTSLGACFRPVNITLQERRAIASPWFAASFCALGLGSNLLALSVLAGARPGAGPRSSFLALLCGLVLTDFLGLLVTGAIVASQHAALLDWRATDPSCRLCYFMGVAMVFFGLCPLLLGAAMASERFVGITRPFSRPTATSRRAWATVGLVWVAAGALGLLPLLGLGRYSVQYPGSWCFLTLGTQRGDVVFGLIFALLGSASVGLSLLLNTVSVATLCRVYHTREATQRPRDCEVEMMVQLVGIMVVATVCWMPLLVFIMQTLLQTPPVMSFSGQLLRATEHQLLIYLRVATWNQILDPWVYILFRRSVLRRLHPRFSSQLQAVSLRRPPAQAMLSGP
Description: QBI-HEK 293A cells expressing human or mouse TxA2 (TP) receptor were grown as described previously and harvested in phosphate-buffered saline with 1 mM EDTA. The cell pellet was homogenized in a glass homogenizer in 20 mM Hepes, 1 mM EGTA, 0.5 mM DTT with protease inhibitor cocktail. The homogenate was initially centrifuged at 1000×g for 10 minutes at 8° C. to remove cell debris. The homogenate was then centrifuged in a Beckman L8-70M ultracentrifuge (Beckman-Coulter, Brea, Calif., USA) at 21,000 rpm for 30 minutes at 4° C., and the pellet was resuspended in 20 mM Hepes, 1 mM EGTA, 100 mM NaCl. Membrane preparations were normalized to protein level as determined with a BCA assay (ThermoFisher, Rockland, Ill.) and stored at −80° C.
Test antagonists were incubated at 10 different concentrations with 25 μg membrane and 25 nM ^3H-SQ29,548 (PerkinElmer, Waltham, Mass., USA) in 50 mM Tris, 4 mM CaCl2, 0.1% ascorbic acid pH 7.5 for 2 hours at 25° C. in 96-well polystyrene plates. Separation of bound from free radioligand was accomplished by rapid vacuum filtration onto 96-well GF/B filter plates (PerkinElmer, Waltham, Mass., USA). Filters were washed 8 times in 50 mM Tris, pH 6.9 and allowed to dry for 16 hours, Plates were sealed and filters dissolved in 50 μL Betaplate Scintillation fluid (PerkinElmer, Waltham, Mass., USA) and read on a scintillation counter. Data are presented as percent total binding as calculated by a minimum of 3 wells containing membrane and ^3H-SQ29,548 without antagonist.
Equilibrium dissociation constants (Kd), IC50, and Schild regression analyses was performed with GraphPad Prism software (GraphPad Software Inc., La Jolla, Calif., USA).
To facilitate the characterization of the new compounds, cell-based TP receptor functional assays were optimized. HEK293 clones have been produced that stably express the human (hTP) or mouse (mTP) TP receptor (a isoform), and treatment of these clones with I-BOP ([1S-[1α,2α(Z),3β(1E,3S*),4α]]-7-[3-[3-hydroxy-4-(4-iodophenoxy)-1-butenyl]-7-oxabicyclo[2.2.1]hept-2-yl]-5-heptenoic acid) results in increased production of inositol triphosphate (IP3) (Knezevic, et al., 1993, Blood 82:A156; Shenker, et al., 1991, J Biol Chem 266:9309-9313; Huang, et al., 2004, Cell Signal 16:521-533) which can be quantified by measuring the breakdown product, inositol monophosphates (IP1), using a commercial time-resolved fluorescence assay. […] A radioligand binding assay was also developed to allow for the determination of binding affinities of compounds at the hTP and mTP receptors.

For `Cc1ccc2c(c1CCC(=O)O)CC[C@@H](NS(=O)(=O)c1ccc(Cl)cc1)C2` [Compound S18886], the “free drug in plasma relative to brain” value ([1]; drinking water dosing) was > 10 ×, the “calculated free drug concentration in brain as % of Kd at mouse TP receptor” value ([1]; drinking water dosing, daylight phase) was ~30% and the concentration at 1 day ([1]; mouse, brain, oral, dosing by drinking water, day 1, daylight phase, read-out: Free S18886 brain level) was 0.093 nM. The concentration at 2 day ([1]; mouse, brain, oral, dosing by drinking water, day 2, daylight phase, read-out: Free S18886 brain level) was 0.117 nM and the Kd [2] was 0.36 nM.
